Test results taken from ChEMBL document CHEMBL1201862, “PubChem BioAssay data set” (2004).
Activity calls are given as the source filed them.

How the values were obtained:
[1] = molecular target: Protein Wnt-3a (Mus musculus, UniProt P27467); test: antagonism of Wnt3a pathway luciferase reporter – Wnt-LIGHT cells, luminescence, selectivity assay for Gli-SUFU antagonist project, dose response (AID 651570); assay type: functional; settings: read-out: IC50_Mean;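 also: Wnt-LIGHT reporter cells stimulated with conditioned medium from Wnt3a-producing cells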
Chain of Protein Wnt-3a (P27467 whole entry): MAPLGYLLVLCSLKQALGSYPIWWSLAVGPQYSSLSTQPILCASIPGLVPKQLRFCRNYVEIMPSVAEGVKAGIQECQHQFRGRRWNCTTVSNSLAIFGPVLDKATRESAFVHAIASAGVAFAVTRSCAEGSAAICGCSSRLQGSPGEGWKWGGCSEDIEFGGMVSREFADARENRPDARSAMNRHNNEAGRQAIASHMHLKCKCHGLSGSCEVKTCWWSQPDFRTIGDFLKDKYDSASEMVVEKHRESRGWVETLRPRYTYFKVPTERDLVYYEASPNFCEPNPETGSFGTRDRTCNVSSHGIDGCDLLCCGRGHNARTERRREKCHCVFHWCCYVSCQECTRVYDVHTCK

[2] = molecular target: T1, Endoribonuclease toxin MazF (Escherichia coli K-12, UniProt P0AE70); test: substrate-only fluorescence increase artefacts – biochemical, single-stranded RNase substrate, counter-screen for MazEF activator project, dose response (AID 588502); assay type: functional
T1 sequence (P0AE70 whole entry): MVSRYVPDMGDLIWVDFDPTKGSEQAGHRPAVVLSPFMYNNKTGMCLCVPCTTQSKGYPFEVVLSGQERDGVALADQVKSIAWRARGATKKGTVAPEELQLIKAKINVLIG

[3] = molecular target: T1, Endoribonuclease toxin MazF; test: activation of MazEF endoribonuclease cleavage – biochemical, fluorescence, single-stranded RNA substrate, uHTS hits, dose response (AID 588481); assay type: functional
[4] = system: SN12K1; test: cells; assay type: functional; settings: Homo sapiens
[5] = system: P388/ADR; test: cells; assay type: functional; settings: Mus musculus
[6] = system: P388; test: cells; assay type: functional; settings: Mus musculus
[7] = system: HeLa; test: ATP-based viability loss in HeLa cells – cell-based, CellTiter-Glo luminescence, cherry-pick samples, cytotoxicity control for MITF activator project, dose response (AID 540259); assay type: functional; settings: Homo sapiens
[8] = molecular target: 26S proteasome non-ATPase regulatory subunit 14 (Homo sapiens, UniProt O00487); test: inhibition of proteasome subunit RPN11 – biochemical, fluorescence polarization, uHTS hits, confirmation (AID 602368); assay type: functional
Chain of 26S proteasome non-ATPase regulatory subunit 14 (O00487 whole entry): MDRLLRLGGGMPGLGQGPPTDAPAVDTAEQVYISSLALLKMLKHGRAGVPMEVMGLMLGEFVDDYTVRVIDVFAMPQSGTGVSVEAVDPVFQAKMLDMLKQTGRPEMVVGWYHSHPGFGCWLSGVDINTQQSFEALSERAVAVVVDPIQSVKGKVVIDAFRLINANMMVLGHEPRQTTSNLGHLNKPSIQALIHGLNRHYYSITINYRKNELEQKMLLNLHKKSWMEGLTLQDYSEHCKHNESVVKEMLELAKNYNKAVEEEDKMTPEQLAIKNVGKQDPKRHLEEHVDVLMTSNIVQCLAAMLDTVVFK

[9] = molecular target: Prothrombin (Bos taurus, UniProt P00735); test: thrombin protease inhibitors – biochemical, fluorescence polarization, uHTS hits, dose response (AID 602369); assay type: functional
[10] = molecular target: Beta Lactamase (Pseudomonas aeruginosa, UniProt Q932Y6); test: BLA reporter interference, concentration series – BLA reporter cells, FRET fluorescence, artefact control for TLR9-MyD88 binding inhibitor project, dose response (AID 588341); assay type: cell-based;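 also: cell based assay in CHO-K1 cells stably expressing beta-lactamase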
Chain of Beta Lactamase (Q932Y6 whole entry): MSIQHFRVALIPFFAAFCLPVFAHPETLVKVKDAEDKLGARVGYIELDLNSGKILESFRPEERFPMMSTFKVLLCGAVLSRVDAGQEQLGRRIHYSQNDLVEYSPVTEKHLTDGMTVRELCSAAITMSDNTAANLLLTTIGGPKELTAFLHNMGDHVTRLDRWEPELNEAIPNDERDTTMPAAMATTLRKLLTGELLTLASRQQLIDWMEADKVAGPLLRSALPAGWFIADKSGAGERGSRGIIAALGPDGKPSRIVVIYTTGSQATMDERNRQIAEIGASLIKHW

[11] = molecular target: 72 kDa type IV collagenase (Homo sapiens, UniProt P08253); test: Dose Response validation of uHTS RPN11 inhibitor hits using a MMP-2 Fluorescence assay.; assay type: functional
Chain of 72 kDa type IV collagenase (P08253 whole entry, the tested form may be a part): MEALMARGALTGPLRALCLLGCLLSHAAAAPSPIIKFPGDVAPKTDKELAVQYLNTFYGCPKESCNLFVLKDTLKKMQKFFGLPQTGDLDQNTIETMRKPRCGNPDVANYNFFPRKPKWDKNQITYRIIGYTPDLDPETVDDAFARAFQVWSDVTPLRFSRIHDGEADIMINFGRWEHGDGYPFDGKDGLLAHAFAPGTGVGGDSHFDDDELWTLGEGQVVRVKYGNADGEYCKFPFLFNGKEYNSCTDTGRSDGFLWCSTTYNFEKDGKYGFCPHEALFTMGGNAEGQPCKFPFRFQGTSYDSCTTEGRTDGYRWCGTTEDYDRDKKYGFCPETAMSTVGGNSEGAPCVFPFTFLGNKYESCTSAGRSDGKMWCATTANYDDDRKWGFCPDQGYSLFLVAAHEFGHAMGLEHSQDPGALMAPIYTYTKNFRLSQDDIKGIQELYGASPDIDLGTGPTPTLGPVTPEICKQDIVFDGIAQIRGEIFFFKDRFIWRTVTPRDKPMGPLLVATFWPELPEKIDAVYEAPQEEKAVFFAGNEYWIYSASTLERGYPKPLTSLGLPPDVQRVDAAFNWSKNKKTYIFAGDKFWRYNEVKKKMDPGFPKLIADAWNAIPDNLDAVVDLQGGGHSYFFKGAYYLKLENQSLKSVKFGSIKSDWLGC

[12] = system: CHO; test: CHO cell viability loss, potency – luminescence, cytotoxicity control for TLR9-MyD88 binding inhibitor project, dose response (AID 588339); assay type: functional, cell-based, hamster; settings: Cricetulus griseus;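 also: CHO cells stably coexpressing TLR9 and MyD88 fusions from primary screen; compound exposure lasted 48 hours before viability readout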
[13] = molecular target: T2, Ubiquitin-conjugating enzyme E2 N (Homo sapiens, UniProt P61088); assay type: functional
T2 sequence (P61088 whole entry): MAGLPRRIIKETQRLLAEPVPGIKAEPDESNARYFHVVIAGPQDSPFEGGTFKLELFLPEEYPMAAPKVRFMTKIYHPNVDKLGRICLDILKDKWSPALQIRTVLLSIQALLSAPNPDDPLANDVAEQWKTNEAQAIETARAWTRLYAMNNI

[14] = reduction of Shn3 3'UTR-driven luciferase in osteoblasts – cell-based, Clone20 osteoblasts, firefly luciferase, cherry-picked, dose response (AID 624132); assay type: functional;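 also: firefly luciferase luminescence from reporter carrying the Shn3 3'UTR in osteoblasts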
[15] = non-specific 3'UTR reporter inhibition in Clone20-Shn3RL – cell-based, Renilla luciferase, cherry-picked, counter-screen for Shn3 inhibitor project, dose response (AID 624133); assay type: functional
[16] = molecular target: T3, Bcl-2-related protein A1 (Mus musculus, UniProt Q07440); assay type: functional;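 also: confirmatory dose–response counterscreen on Bfl-1, used to check hits from a UBC13 polyubiquitin inhibitor campaign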
T3 sequence (Q07440 whole entry): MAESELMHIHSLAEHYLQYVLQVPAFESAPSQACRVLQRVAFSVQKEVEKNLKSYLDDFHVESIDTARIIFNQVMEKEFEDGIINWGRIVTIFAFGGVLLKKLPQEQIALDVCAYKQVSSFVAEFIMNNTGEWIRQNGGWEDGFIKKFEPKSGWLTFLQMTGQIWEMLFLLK

[17] = loss of viability in HepG2 cells – cell-based, CellTiter-Glo, cherry-picked, cytotoxicity control for Shn3 inhibitor project, dose response (AID 624134); assay type: functional
[18] = molecular target: T4, Microphthalmia-associated transcription factor (Homo sapiens, UniProt O75030); test: reducers of TRPM1 reporter luminescence, concentration series – cell-based, SK-MEL-5, cherry-picked, set 3, MITF inhibitor project, dose response (AID 493073); assay type: functional;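 also: SK-MEL-5 melanoma cells with luciferase driven by the MITF target TRPM1 promoter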
T4 sequence (O75030 whole entry): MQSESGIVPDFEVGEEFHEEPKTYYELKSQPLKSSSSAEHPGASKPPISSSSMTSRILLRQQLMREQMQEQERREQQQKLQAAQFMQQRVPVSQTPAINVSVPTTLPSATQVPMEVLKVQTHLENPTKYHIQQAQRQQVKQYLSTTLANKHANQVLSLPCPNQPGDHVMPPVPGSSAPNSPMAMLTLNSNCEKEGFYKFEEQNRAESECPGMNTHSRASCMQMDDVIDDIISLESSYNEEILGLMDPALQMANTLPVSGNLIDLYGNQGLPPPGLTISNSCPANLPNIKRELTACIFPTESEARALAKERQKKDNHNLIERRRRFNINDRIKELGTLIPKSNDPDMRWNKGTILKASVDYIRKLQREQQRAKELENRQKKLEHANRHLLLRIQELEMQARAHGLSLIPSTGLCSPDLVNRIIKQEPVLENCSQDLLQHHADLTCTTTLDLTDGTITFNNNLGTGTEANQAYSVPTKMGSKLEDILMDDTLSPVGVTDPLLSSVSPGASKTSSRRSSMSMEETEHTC

[19] = molecular target: T2, Ubiquitin-conjugating enzyme E2 N; assay type: functional; remark: listed apart in the source
[20] = Luminescence Cell-Based Dose Retest to Confirm Inhibitors of Cancer Stem Cells. [Related pubchem assays (depositor defined):AID2717, AID2721]; assay type: functional; settings: Homo sapiens
[21] = molecular target: T5, Protein RecA (Mycobacterium tuberculosis, UniProt P9WHJ3); test: Fluorescence Cell-Free Homogeneous Dose Retest to Identify Inhibitors of RecA-Intein Splicing Activity. [Related pubchem assays (depositor defined):AID2097, AID2223, AID489010, AID492950]; assay type: functional
T5 sequence (P9WHJ3 whole entry): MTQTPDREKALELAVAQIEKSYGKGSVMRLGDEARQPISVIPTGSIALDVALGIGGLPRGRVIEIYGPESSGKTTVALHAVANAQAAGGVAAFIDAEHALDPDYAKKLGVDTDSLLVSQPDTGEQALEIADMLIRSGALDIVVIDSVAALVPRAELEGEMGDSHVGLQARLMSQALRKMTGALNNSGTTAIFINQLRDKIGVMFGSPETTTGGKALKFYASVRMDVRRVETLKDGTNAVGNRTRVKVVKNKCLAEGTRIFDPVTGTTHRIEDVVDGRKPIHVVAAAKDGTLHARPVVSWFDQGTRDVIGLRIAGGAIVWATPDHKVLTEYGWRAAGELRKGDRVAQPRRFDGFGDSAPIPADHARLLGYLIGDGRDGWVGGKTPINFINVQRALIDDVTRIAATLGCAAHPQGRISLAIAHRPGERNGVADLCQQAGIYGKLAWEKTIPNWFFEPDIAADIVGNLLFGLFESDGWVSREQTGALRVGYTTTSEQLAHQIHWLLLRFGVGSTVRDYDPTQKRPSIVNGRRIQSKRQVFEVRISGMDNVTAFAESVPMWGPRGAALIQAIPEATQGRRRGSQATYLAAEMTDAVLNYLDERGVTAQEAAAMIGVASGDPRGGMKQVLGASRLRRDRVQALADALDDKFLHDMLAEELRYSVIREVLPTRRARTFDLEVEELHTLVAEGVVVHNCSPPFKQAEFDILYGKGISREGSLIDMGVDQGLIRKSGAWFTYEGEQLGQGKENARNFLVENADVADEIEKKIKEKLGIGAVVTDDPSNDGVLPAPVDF

[22] = molecular target: T6, Replicative DNA helicase DnaB (Mycobacterium tuberculosis, UniProt P9WMR3); test: DnaB intein splicing inhibitors, dose response, biochemical, cell-free fluorescence (AID 449749); assay type: functional
T6 sequence (P9WMR3 whole entry): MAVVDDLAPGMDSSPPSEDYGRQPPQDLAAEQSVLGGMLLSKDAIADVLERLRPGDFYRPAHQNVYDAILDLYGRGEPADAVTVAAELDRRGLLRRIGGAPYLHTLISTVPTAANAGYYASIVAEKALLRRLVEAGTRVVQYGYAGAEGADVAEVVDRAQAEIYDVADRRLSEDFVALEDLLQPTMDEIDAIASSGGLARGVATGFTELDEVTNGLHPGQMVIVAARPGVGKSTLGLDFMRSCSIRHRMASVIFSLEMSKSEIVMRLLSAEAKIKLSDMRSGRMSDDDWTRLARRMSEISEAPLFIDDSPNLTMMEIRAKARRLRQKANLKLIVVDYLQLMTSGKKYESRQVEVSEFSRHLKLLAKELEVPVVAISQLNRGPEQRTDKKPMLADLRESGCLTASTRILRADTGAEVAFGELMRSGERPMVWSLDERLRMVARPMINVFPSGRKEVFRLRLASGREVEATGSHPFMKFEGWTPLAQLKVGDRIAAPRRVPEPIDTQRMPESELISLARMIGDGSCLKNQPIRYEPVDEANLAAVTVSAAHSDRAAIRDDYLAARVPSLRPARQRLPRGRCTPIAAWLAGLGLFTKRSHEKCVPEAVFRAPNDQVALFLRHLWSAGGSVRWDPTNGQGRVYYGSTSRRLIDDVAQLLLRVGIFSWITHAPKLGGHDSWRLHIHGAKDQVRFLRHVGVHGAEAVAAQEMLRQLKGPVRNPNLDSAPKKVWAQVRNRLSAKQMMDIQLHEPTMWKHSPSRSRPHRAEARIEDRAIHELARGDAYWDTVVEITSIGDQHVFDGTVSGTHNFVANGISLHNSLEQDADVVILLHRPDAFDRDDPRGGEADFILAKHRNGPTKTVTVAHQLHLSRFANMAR

[23] = molecular target: Genome polyprotein (dengue virus type 2, UniProt P29990); test: flavivirus cap methylation enzyme inhibition – biochemical, confirmation dose response, primary screen (AID 588689); assay type: functional
Chain of Genome polyprotein (P29990 2492-3391 limits assumed): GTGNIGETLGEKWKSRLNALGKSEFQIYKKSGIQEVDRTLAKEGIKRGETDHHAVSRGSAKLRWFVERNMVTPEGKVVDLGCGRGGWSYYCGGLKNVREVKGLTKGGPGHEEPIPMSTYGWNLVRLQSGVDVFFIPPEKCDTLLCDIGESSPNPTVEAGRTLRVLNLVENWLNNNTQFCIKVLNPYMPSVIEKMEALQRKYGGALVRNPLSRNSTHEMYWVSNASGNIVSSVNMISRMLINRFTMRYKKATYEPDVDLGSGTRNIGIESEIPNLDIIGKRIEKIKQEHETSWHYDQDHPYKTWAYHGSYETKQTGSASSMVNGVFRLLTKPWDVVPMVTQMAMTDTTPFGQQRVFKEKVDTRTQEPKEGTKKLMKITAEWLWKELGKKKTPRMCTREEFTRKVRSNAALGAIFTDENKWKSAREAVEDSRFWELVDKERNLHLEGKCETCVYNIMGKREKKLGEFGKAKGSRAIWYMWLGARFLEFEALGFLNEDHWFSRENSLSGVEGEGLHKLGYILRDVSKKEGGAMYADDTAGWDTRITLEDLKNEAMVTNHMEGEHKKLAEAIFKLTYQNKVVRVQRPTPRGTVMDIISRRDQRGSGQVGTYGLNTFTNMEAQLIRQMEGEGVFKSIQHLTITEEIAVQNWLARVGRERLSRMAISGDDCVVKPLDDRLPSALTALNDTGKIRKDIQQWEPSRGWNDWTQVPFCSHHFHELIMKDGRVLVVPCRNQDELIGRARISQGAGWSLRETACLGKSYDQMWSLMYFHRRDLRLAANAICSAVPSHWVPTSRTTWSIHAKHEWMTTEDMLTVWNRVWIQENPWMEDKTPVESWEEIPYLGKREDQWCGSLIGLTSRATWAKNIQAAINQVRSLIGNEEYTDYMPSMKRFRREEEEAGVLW

## Cc1ccc(NC(=O)/C=C/c2ccco2)cc1S(=O)(=O)N1CCCCCC1
[1]
  IC50: 17.7 µM (active)

## Cc1[nH]c2ccccc2c1/C=C(\C#N)C(=O)NCc1ccccc1
[2]
  EC50: > 99 µM (inactive)
[3]
  EC50: > 99 µM (inactive)

## CC(C)=CCC(OC(=O)C=C(C)C)c1cc(O)c2c(c1O)C(=O)C=CC2=O (stereo not given)
[4]
  GI50: 1.2 µM (inactive)
[5]
  GI50: 23 nM (active)
[6]
  GI50: 0.0296 µM (active)

## Cc1cc(NC(=O)CSc2nc3c4ccccc4nc-3c(O)n2-c2ccccc2F)no1
[1]
  IC50: 6.29 µM (active)

## O=C(NC(Cc1ccc(I)cc1)C(=O)O)c1ccc(Br)cc1 (stereo not given)
[4]
  GI50: > 100 µM (inactive)
[5]
  GI50: 21300 nM (inactive)
[6]
  GI50: 53.7 µM (inactive)

## Cc1ccc(C(=O)Nc2cccc(O)c2)cc1S(=O)(=O)N1CCCCCC1
[7]
  AC50: 321 µM (active)

## CCOc1ccccc1C(=O)Nc1cc(Cl)ccc1O
[2]
  EC50: > 99 µM (inactive)
[3]
  EC50: 38 µM (inactive)

## C/C(=N\Nc1ccc([N+](=O)[O-])cc1)c1cc2ccccc2o1
[8]
  IC50: 1.82 µM (active)
[9]
  IC50: 1.62 µM (active)
[10]
  IC50: 3 µM (active)
[11]
  IC50: > 100 µM (inactive)
[12]
  IC50: 49.7 µM (inactive)

## CS(=O)(=O)c1ncc(Cl)c(C(=O)Nc2ccc(N3CCOCC3)cc2)n1
[13]
  IC50: 14.9 µM (active)
[14]
  AC50: 1.21 µM (active)
[15]
  AC50: 12.9 µM (active)
[16]
  IC50: > 20 µM (inactive)
[17]
  AC50: 24 µM (active)
[10]
  IC50: 10.2 µM (inactive)
[18]
  AC50: 22.8 µM (active)
[19]
  IC50: > 20 µM (inactive)
[12]
  IC50: 4.79 µM (active)
[20]
  AC50: 5.14 µM (active)
[21]
  EC50: 12.8 µM (active)
[22]
  AC50: 4.51 µM (active)
[23]
  IC50: > 100 µM (active)

## COc1cc(/N=N\c2ccc(OC)c(S(=O)(=O)O)c2)c(C)cc1/N=N\c1ccc(/C=C/c2ccc(/N=[N+](/[O-])c3ccc(/C=C/c4ccc(/N=N/c5cc(C)c(/N=N\c6ccc(OC)c(S(=O)(=O)O)c6)cc5OC)cc4S(=O)(=O)O)c(S(=O)(=O)O)c3)cc2S(=O)(=O)O)c(S(=O)(=O)O)c1
[4]
  GI50: > 100 µM (inactive)
[6]
  GI50: > 100 µM (inactive)

## c1ccc(C[n+]2cccc(-c3ccccc3)c2)cc1
[1]
  IC50: 44.8 µM (inactive)

## O=c1nc2sc3ccccc3n2c(=O)n1-c1ccc(Cl)cc1
[7]
  AC50: 43.9 µM (active)

## CCCC(=O)Nc1nc(-c2ccccc2)ns1
[7]
  AC50: 64.7 µM (active)

## Cc1ccc(CNC(=O)c2nnn(CC(=O)Nc3cc(C)cc(C)c3)c2N)cc1
[8]
  IC50: 35.4 µM (active)
[9]
  IC50: 76.5 µM (active)
[11]
  IC50: > 100 µM (inactive)

## COc1cc(C2c3cc4c(cc3[C@@H](Nc3ccc([N+](=O)[O-])cc3)C3COC(=O)[C@H]23)OCO4)cc(OC)c1O (stereo not given in full)
[4]
  GI50: 0.0427 µM (active)
[5]
  GI50: 324 nM (active)
[6]
  GI50: < 0.01 µM (active)

## COc1ccccc1Cc1c(-c2cccc(Cl)c2)nc2ccc(Br)cn12
[8]
  IC50: 14.2 µM (active)
[9]
  IC50: 8.29 µM (active)
[11]
  IC50: > 100 µM (inactive)
